Assay results taken from PubChem BioAssay AID2060899 (Molecular Pharmacology Branch, DTP, NCI, 2025).

Tested on: 565726-208-R1-J5-PDC complex spheroids, growth inhibition
Test: Anticancer human tumor 565726-208-R1-J5-PDC patient-derived pancreatic adenocarcinoma cell line growth inhibition [RAS]
Settings: for viability, T/C: stronger effect = lower value
Method in brief: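 Multi-cell-type spheroids: tumor cells plus HUVEC endothelial cells and mesenchymal stem cells. RAS-pathway inhibitors were combined with targeted agents, each dosed in half-log steps down from clinical Cmax, or from 10 microM when Cmax was unknown.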

[1] = curve of first compound, second compound 0.000949 µM
[2] = curve of first compound, second compound 0.003 µM
[3] = curve of first compound, second compound 0.00949 µM
[4] = curve of first compound, second compound 0.03 µM
[5] = curve of first compound, second compound 0.0949 µM
[6] = curve of first compound, second compound 0.3 µM
[7] = second compound 0.000949 µM, first compound 0.0316 µM
[8] = second compound 0.000949 µM, first compound 0.1 µM
[9] = second compound 0.000949 µM, first compound 0.316 µM
[10] = second compound 0.000949 µM, first compound 1 µM
[11] = second compound 0.003 µM, first compound 0.0316 µM
[12] = second compound 0.003 µM, first compound 0.1 µM
[13] = second compound 0.003 µM, first compound 0.316 µM
[14] = second compound 0.003 µM, first compound 1 µM
[15] = second compound 0.00949 µM, first compound 0.0316 µM
[16] = second compound 0.00949 µM, first compound 0.1 µM
[17] = second compound 0.00949 µM, first compound 0.316 µM
[18] = second compound 0.00949 µM, first compound 1 µM
[19] = second compound 0.03 µM, first compound 0.0316 µM
[20] = second compound 0.03 µM, first compound 0.1 µM
[21] = second compound 0.03 µM, first compound 0.316 µM
[22] = second compound 0.03 µM, first compound 1 µM
[23] = second compound 0.0949 µM, first compound 0.0316 µM
[24] = second compound 0.0949 µM, first compound 0.1 µM
[25] = second compound 0.0949 µM, first compound 0.316 µM
[26] = second compound 0.0949 µM, first compound 1 µM
[27] = second compound 0.3 µM, first compound 0.0316 µM
[28] = second compound 0.3 µM, first compound 0.1 µM
[29] = second compound 0.3 µM, first compound 0.316 µM
[30] = second compound 0.3 µM, first compound 1 µM
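Note: spheroids exposed to compounds for seven days before readout.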
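Throughout, for viability, T/C: 100% = DMSO vehicle control viability.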

**Q.** Which results are given for O=C(c1ccc(F)c(F)c1Nc1ccc(I)cc1F)N1CC(O)([C@@H]2CCCCN2)C1 + CCn1c(-c2cccnc2C(C)OC)c2c3cc(ccc31)N1CCOC(CC(NC(=O)C(C(C)C)N(C)C(=O)C3(F)CCN(C(=O)C#CC(C)(C)N(C)C)CC3)C(=O)N3CCCC(N3)C(=O)OCC(C)(C)C2)C1?
**A.** IC50 [1]: 161 nM; IC50 [2]: 130 nM; IC50 [3]: 160 nM; IC50 [4]: 182 nM; IC50 [5]: 192 nM; IC50 [6]: 95.7 nM; viability, T/C (second compound 0.000949 µM, first compound 0.00316 µM): 95.3%; viability, T/C (second compound 0.000949 µM, first compound 0.01 µM): 83.2%; viability, T/C [7]: 76.8%; viability, T/C [8]: 55.4%; viability, T/C [9]: 40%; viability, T/C [10]: 17.7%; viability, T/C (second compound 0.003 µM, first compound 0.00316 µM): 96.4%; viability, T/C (second compound 0.003 µM, first compound 0.01 µM): 80.4%; viability, T/C [11]: 71.8%; viability, T/C [12]: 53.2%; viability, T/C [13]: 36.8%; viability, T/C [14]: 19%; viability, T/C (second compound 0.00949 µM, first compound 0.00316 µM): 93.7%; viability, T/C (second compound 0.00949 µM, first compound 0.01 µM): 87.3%; viability, T/C [15]: 67.7%; viability, T/C [16]: 57.1%; viability, T/C [17]: 43.2%; viability, T/C [18]: 19.9%; viability, T/C (second compound 0.03 µM, first compound 0.00316 µM): 82.7%; viability, T/C (second compound 0.03 µM, first compound 0.01 µM): 82.3%; viability, T/C [19]: 77.9%; viability, T/C [20]: 59.5%; viability, T/C [21]: 40.6%; viability, T/C [22]: 19.4%; viability, T/C (second compound 0.0949 µM, first compound 0.00316 µM): 82.8%; viability, T/C (second compound 0.0949 µM, first compound 0.01 µM): 78.8%; viability, T/C [23]: 72.9%; viability, T/C [24]: 57.4%; viability, T/C [25]: 43.8%; viability, T/C [26]: 19.8%; viability, T/C (second compound 0.3 µM, first compound 0.00316 µM): 82.6%; viability, T/C (second compound 0.3 µM, first compound 0.01 µM): 71.2%; viability, T/C [27]: 67.5%; viability, T/C [28]: 45.9%; viability, T/C [29]: 34.4%; viability, T/C [30]: 13.6%

**Q.** Which results are given for C=CC(=O)Nc1cc(Nc2nccc(-c3cn(C)c4ccccc34)n2)c(OC)cc1N(C)CCN(C)C?
**A.** viability, T/C (compound 0.0316 µM): 92.9% [middle of 4 runs]; viability, T/C (compound 0.1 µM): 85.7% [middle of 4 runs]; IC50 (curve of compound): > 1000 nM

**Q.** How did the IC50 [1] turn out when Cc1nc(N2CCC3(CC2)COC(C)C3N)c(CO)nc1Sc1ccnc(N)c1Cl (stereo not given) + CCn1c(-c2cc(N3CCN(C)CC3)cnc2C(C)OC)c2c3cc(ccc31)-c1csc(n1)CC(NC(=O)C1CC1C)C(=O)N1CCCC(N1)C(=O)OCC(C)(C)C2 was run?
**A.** 204 nM

**Q.** What about the IC50 [2] of the same molecule?
**A.** 38.7 nM

**Q.** What about the IC50 [3] of the same molecule?
**A.** < 31.6 nM

**Q.** What about the IC50 [4] of the same molecule?
**A.** < 31.6 nM

**Q.** What about the IC50 [5] of the same molecule?
**A.** < 31.6 nM

**Q.** What about the IC50 [6] of the same molecule?
**A.** < 31.6 nM

**Q.** And the viability, T/C [7]?
**A.** 63.1%

**Q.** And the viability, T/C [8]?
**A.** 53.6%

**Q.** What about the viability, T/C [9] of the same molecule?
**A.** 48.3%

**Q.** What about the viability, T/C [10] of the same molecule?
**A.** 39.5%

**Q.** And the viability, T/C (second compound 0.000949 µM, first compound 3.16 µM)?
**A.** 33%

**Q.** What about the viability, T/C (second compound 0.000949 µM, first compound 10 µM) of the same molecule?
**A.** 28%

**Q.** And the viability, T/C [11]?
**A.** 51.3%

**Q.** And the viability, T/C [12]?
**A.** 43.4%

**Q.** And the viability, T/C [13]?
**A.** 34.3%

**Q.** And the viability, T/C [14]?
**A.** 27.6%

**Q.** And the viability, T/C (second compound 0.003 µM, first compound 3.16 µM)?
**A.** 29.1%

**Q.** And the viability, T/C (second compound 0.003 µM, first compound 10 µM)?
**A.** 22%

**Q.** And the viability, T/C [15]?
**A.** 40.5%

**Q.** And the viability, T/C [16]?
**A.** 34.8%

**Q.** What about the viability, T/C [17] of the same molecule?
**A.** 26.1%

**Q.** And the viability, T/C [18]?
**A.** 22.2%

**Q.** What about the viability, T/C (second compound 0.00949 µM, first compound 3.16 µM) of the same molecule?
**A.** 20.9%

**Q.** And the viability, T/C (second compound 0.00949 µM, first compound 10 µM)?
**A.** 17.1%

**Q.** What about the viability, T/C [19] of the same molecule?
**A.** 29.1%

**Q.** What about the viability, T/C [20] of the same molecule?
**A.** 28.4%

**Q.** And the viability, T/C [21]?
**A.** 22.2%

**Q.** And the viability, T/C [22]?
**A.** 18%

**Q.** And the viability, T/C (second compound 0.03 µM, first compound 3.16 µM)?
**A.** 19.8%

**Q.** And the viability, T/C (second compound 0.03 µM, first compound 10 µM)?
**A.** 16.9%

**Q.** And the viability, T/C [23]?
**A.** 22.9%

**Q.** And the viability, T/C [24]?
**A.** 21.2%

**Q.** What about the viability, T/C [25] of the same molecule?
**A.** 20.1%

**Q.** What about the viability, T/C [26] of the same molecule?
**A.** 15.9%

**Q.** What about the viability, T/C (second compound 0.0949 µM, first compound 3.16 µM) of the same molecule?
**A.** 18.3%

**Q.** And the viability, T/C (second compound 0.0949 µM, first compound 10 µM)?
**A.** 17.2%

**Q.** What about the viability, T/C [27] of the same molecule?
**A.** 24.4%

**Q.** And the viability, T/C [28]?
**A.** 20%

**Q.** What about the viability, T/C [29] of the same molecule?
**A.** 17%

**Q.** What about the viability, T/C [30] of the same molecule?
**A.** 13.8%

**Q.** And the viability, T/C (second compound 0.3 µM, first compound 3.16 µM)?
**A.** 16.2%

**Q.** And the viability, T/C (second compound 0.3 µM, first compound 10 µM)?
**A.** 15.5%

**Q.** Which results are given for CCc1c2c(nc3ccc(O)cc13)-c1cc3c(c(=O)n1C2)COC(=O)[C@]3(O)CC?
**A.** viability, T/C (compound 0.000949 µM): 77.2% [middle of 4 runs]; viability, T/C (compound 0.00949 µM): 34.4% [middle of 4 runs]; viability, T/C (compound 0.03 µM): 19.3% [middle of 4 runs]; viability, T/C (compound 0.0949 µM): 12.7% [middle of 4 runs]; viability, T/C (compound 0.3 µM): 7.31% [middle of 4 runs]; IC50 (curve of compound): 2.78 nM [middle of 4 runs]

**Q.** Which results are given for O=C(c1ccc(F)c(F)c1Nc1ccc(I)cc1F)N1CC(O)([C@@H]2CCCCN2)C1 + C=CC(=O)N1CCN(c2nc(OCC3CCCN3C)nc3c(F)c(-c4nc(N)cc(C)c4C(F)(F)F)c(Cl)cc23)C(C)C1?
**A.** IC50 (curve of first compound, second compound 0.00316 µM): 460 nM; IC50 (curve of first compound, second compound 0.01 µM): 290 nM; IC50 (curve of first compound, second compound 0.0316 µM): > 1000 nM; IC50 (curve of first compound, second compound 0.1 µM): 365 nM; IC50 (curve of first compound, second compound 0.316 µM): > 1000 nM; IC50 (curve of first compound, second compound 1 µM): 759 nM; viability, T/C (second compound 0.00316 µM, first compound 0.00316 µM): 105%; viability, T/C (second compound 0.00316 µM, first compound 0.01 µM): 142%; viability, T/C (second compound 0.00316 µM, first compound 0.0316 µM): 73.3%; viability, T/C (second compound 0.00316 µM, first compound 0.1 µM): 78.3%; viability, T/C (second compound 0.00316 µM, first compound 0.316 µM): 58.1%; viability, T/C (second compound 0.00316 µM, first compound 1 µM): 39.1%; viability, T/C (second compound 0.01 µM, first compound 0.00316 µM): 120%; viability, T/C (second compound 0.01 µM, first compound 0.01 µM): 141%; viability, T/C (second compound 0.01 µM, first compound 0.0316 µM): 88.3%; viability, T/C (second compound 0.01 µM, first compound 0.1 µM): 71.3%; viability, T/C (second compound 0.01 µM, first compound 0.316 µM): 56.6%; viability, T/C (second compound 0.01 µM, first compound 1 µM): 30.1%; viability, T/C (second compound 0.0316 µM, first compound 0.00316 µM): 146%; viability, T/C (second compound 0.0316 µM, first compound 0.01 µM): 174%; viability, T/C (second compound 0.0316 µM, first compound 0.0316 µM): 75.4%; viability, T/C (second compound 0.0316 µM, first compound 0.1 µM): 82.4%; viability, T/C (second compound 0.0316 µM, first compound 0.316 µM): 56.4%; viability, T/C (second compound 0.0316 µM, first compound 1 µM): 38.1%; viability, T/C (second compound 0.1 µM, first compound 0.00316 µM): 138%; viability, T/C (second compound 0.1 µM, first compound 0.01 µM): 137%; viability, T/C (second compound 0.1 µM, first compound 0.0316 µM): 91.1%; viability, T/C (second compound 0.1 µM, first compound 0.1 µM): 69.8%; viability, T/C (second compound 0.1 µM, first compound 0.316 µM): 60%; viability, T/C (second compound 0.1 µM, first compound 1 µM): 36.3%; viability, T/C (second compound 0.316 µM, first compound 0.00316 µM): 154%; viability, T/C (second compound 0.316 µM, first compound 0.01 µM): 139%; viability, T/C (second compound 0.316 µM, first compound 0.0316 µM): 73.1%; viability, T/C (second compound 0.316 µM, first compound 0.1 µM): 71.3%; viability, T/C (second compound 0.316 µM, first compound 0.316 µM): 56.7%; viability, T/C (second compound 0.316 µM, first compound 1 µM): 38.9%; viability, T/C (second compound 1 µM, first compound 0.00316 µM): 137%; viability, T/C (second compound 1 µM, first compound 0.01 µM): 137%; viability, T/C (second compound 1 µM, first compound 0.0316 µM): 82.2%; viability, T/C (second compound 1 µM, first compound 0.1 µM): 85.9%; viability, T/C (second compound 1 µM, first compound 0.316 µM): 61.2%; viability, T/C (second compound 1 µM, first compound 1 µM): 50.3%
